Assay results from patent US8268838B2, “Substituted purinyl-pyrazole derivatives and their use as potassium channel modulators” (Neurosearch A/S, priority 2008, dated 2012).

Target: T1, hSK3 channels (Homo sapiens, UniProt Q9UGI6)
T1 construct: expressed in transfected cells; host or cells: HEK293
Test: Whole-cell patch-clamp recording of ionic current through SK channels (subtype 3) in HEK293 cells expressing hSK3
Type: cell-based
Description: The ionic current through small-conductance Ca^2+-activated K^+ channels (SK channels, subtype 3) is recorded using the whole-cell configuration of the patch-clamp technique in a classic patch-clamp set-up using HEK293 tissue culture cells expressing hSK3 channels as described in e.g. WO 2006/100212.
The SC100 value determined is defined as the Stimulating Concentration required for increasing the baseline current by 100%. The SC100 value determined for Compound 6.5 of the invention was 0.3 μM, which is an indication of its SK3 activating properties.

SMILES: Cc1cc(C)n(-c2nc(N(C(=O)OCC(C)C)c3ccc(Cl)cc3)c3ncn(C)c3n2)n1 [Compound 6.5, (4-Chloro-Phenyl)-[2-(3,5-Dimethyl-Pyrazol-1-yl)-9-Methyl-9H-Purin-6-yl]-Carbamic Acid Isobutyl Ester]
- SC100 (Stimulating Concentration required for increasing the baseline current by 100%): 0.3 µM
